Numbers after ± are expanded uncertainties.
Settings: Liquid; Gas Chromatography

Normal boiling temperature | Structure (SMILES)
332.33 ± 2 °C | CCCCCCP(=O)(OCCC(C)C)OCCC(C)C [diisopentyl hexylphosphonate]
332.64 ± 2 °C | CCCCCOP(=O)(CCCCC)OCCCCC [dipentyl pentylphosphonate]
319.84 ± 2 °C | CCCCCOP(=O)(CCCC)OCCCCC [dipentyl butylphosphonate]
344.43 ± 2 °C | CCCCCCP(=O)(OCCCCC)OCCCCC [dipentyl hexylphosphonate]
306.70 ± 2 °C | CCCCCP(=O)(OCCCC)OCCCC [dibutyl pentylphosphonate]

The remaining lines, values behind:

Structure (SMILES) | Normal boiling temperature
CCCCOP(=O)(CCCC)OCCCC [dibutyl butanephosphonate] | 292.92 ± 2 °C
CCCCCCCCP(=O)(OCCCC)OCCCC [dibutyl octylphosphonate] | 332.96 ± 2 °C
CCCCCCP(=O)(OCCCC)OCCCC [dibutyl hexylphosphonate] | 319.92 ± 2 °C
CCCCP(=O)(OCCC(C)C)OCCC(C)C [diisopentyl butylphosphonate] | 306.90 ± 2 °C
CCCCCP(=O)(OCCC(C)C)OCCC(C)C [diisopentyl pentylphosphonate] | 321.52 ± 2 °C

Source: the NIST ThermoML archive (doi:10.1016/j.tca.2014.11.027)
